Results on five compounds are retold here after article PMC6272869, “Simultaneous Determination of Multiple Components in Guanjiekang in Rat Plasma via the UPLC–MS/MS Method and Its Application in Pharmacokinetic Study” (Molecules, 2016).

The AUC(0-inf) is total exposure, with the tail of the curve extrapolated. A word on the AUC(0-t): it is the area under the concentration-time curve up to a stated or last time point. Read a high AUC(0-t) as more exposure. The IC50 is the point on the concentration scale where inhibition reaches its midpoint.

Read-outs that look alike come from different tables or passages of the source.

A short description of data set [1]: Stability of the analytes in rat plasma under different storage conditions (QC samples). It counts as in vitro ADME. The following applies: n = 3; for Remaining (%) / remaining at 4 h / remaining at 360 h: rat plasma; for Remaining (%): freeze–thaw cycles (three); for remaining at 24 h / remaining at 4 h / remaining at 360 h: rat; for remaining at 24 h: extracted plasma QC samples in auto-sampler, 4 °C for 24 h; for remaining at 4 h: 25 °C for 4 h; for remaining at 360 h: at −70 °C for 15 days. The method, then:
The stability of the seven compounds in rat plasma was assessed by analyzing the QC samples at three concentrations under different sample storage conditions and processing procedures. Short-term stability was assessed by analyzing the QC samples that were kept at room temperature for 4 h, which exceeded the routine sample preparation time. […] Freeze-thaw stability was investigated after three freeze (−40 °C) and thaw (room temperature) cycles. Post-preparation stability was assessed by analyzing the extracted QC samples that were kept in the auto-sampler at 4 °C for […]. All stability testing QC samples were evaluated using the calibration curve of the freshly prepared samples.

Data set [2] can be described thus: Pharmacokinetic study in rats after single oral administration of GJK (UPLC-MS/MS of plasma). Format: in vivo, Sprague–Dawley rats. The following applies: single oral GJK 24 g/kg; for AUC(0-inf) / half-life / Cmax / MRT last / AUC(0-t) / Tmax: Sprague-Dawley; for AUC(0-inf) / half-life / Cmax / MRT last / AUC(0-t) / Tmax (time to reach peak concentration): rat plasma; for AUC(0-inf): n = 6, AUC0–t extrapolated to infinity; for AUC(0-inf) / AUC(0-t): mean ± S.D.; for half-life / Cmax / MRT last: n = 6, mean ± S.D.; for half-life: non-compartmental, read-out: T1/2z (terminal elimination half-life); for Cmax: read-out: Cmax (maximum plasma concentration); for MRT last: read-out: MRT0–t (mean residence time) (converted); for AUC(0-t): n = 6, zero to last sampling time; for Tmax: rat, po, 24 g/kg, read-out: Tmax (time to reach peak concentration) (converted); for Tmax / Tmax (time to reach peak concentration): n = 6, median (minimum, maximum). As for the experimental part: Chromatographic analyses were performed using an Agilent 1290 series UPLC system (Agilent Technologies, Santa Clara, CA, USA) equipped with a binary pump, an online degasser, an auto plate sampler, and a thermostatically controlled column compartment. The determination was carried out at 30 °C on a Waters Acquity UPLC C18 column (100 mm × 2.1 mm, […], Waters, Milford, MA, USA). The mobile phase consisted of 0.1% formic acid (A) and acetonitrile (B) using a gradient elution of 10%–34% B at 0–6 min, 34%–80% B at 6–10 min, 80% B at 10–12 min, 10% B at 12–15 min, and the re-equilibration time of gradient elution was 1 min. The sample injection volume was 5 µL, and the flow rate was 0.35 mL/min. The MS detection was performed using an Agilent 6460 Triple Quadrupole MS (Agilent Technologies) equipped with an electrospray ionization (ESI) source. […] Other parameters were as follows: drying gas (N2) flow rate, 11.0 L/min.
Plasma samples (50 µL) were thawed on ice and mixed with 200 µL of IS (20.0 ng/mL) via vortexing for 1 min. Then, the mixture was centrifuged at 13,500 rpm for 15 min to separate the precipitated protein at 4 °C. The supernatant was transferred into a clean Eppendorf tube and evaporated to dryness under a stream of nitrogen. The residues were reconstituted with 50 µL of water–methanol (50:50, v/v), vortexed and centrifuged at 13,500 rpm for 15 min. Then, the supernatants were injected into the UPLC–MS/MS for analysis.
Sprague–Dawley rats (200–250 g) were obtained from the Center of the Chinese University of Hong Kong and were kept in an environmentally controlled room (temperature: 25 ± 2 °C, humidity: 50% ± 5%, 12 h dark-light cycle) for at least 7 days before the experiments. Prior to the experiments, the animals were fasted for 24 h with water ad libitum. All protocols of animal experiments were approved in accordance with the regulations of the Experimental Animal Administration issued by the Macau University of Science and Technology.
The blood samples (100 µL) were individually collected from the caudal vein into heparinized tubes before administration, and 5, 10, 15, 30, 45, 60, 90, 120, 240, 360, 480, 720 and 1440 min after administration, and then immediately centrifuged at 4500 rpm for 15 min. […] The main PK parameters, including the maximum plasma concentration (Cmax), time to reach Cmax (Tmax), half-life time (T1/2), area under the curve (AUC 0–t and AUC 0–∞) and mean residence time (MRT), were calculated via the non-compartment model using the pharmacokinetic software, PK Solutions 2.0 (Summit Co., Montrose, CO, USA).

In data set [3] the test system is ages-induced mesangial cell damage. On the set-up: method as in PMID 23881455. To be noted: in vitro; read-out: IC50 of antioxidative and anti-inflammatory activities; cited from earlier work.
Data set [4] deals with phosphorylation of ERK, JNK, IKK stimulated by TNF-α. On the set-up: method as in PMID 23978582. The following applies: cited from earlier work.
The mark [5] stands for this setting: plasma, medium QC concentration.

On to `COCC12CCC(OC)C34C5CC6(O)C(OC)C(O)C(O)(C5C6OC(=O)c5ccccc5)C(C(OC)C13)C4N(C)C2` (stereo not drawn) [Benzoylhypaconine, benzoylhypaconine], for which the “Remaining (%)” value in data set [1] (high QC concentration) stood at 106.9%. Besides, the “Remaining (%)” value in data set [1] (low QC concentration) came to 109.6%. Besides, in data set [1] (medium QC concentration), the “Remaining (%)” value was found to be 92.7%. In data set [1] (plasma, high QC concentration), the share remaining at 24 h amounted to 104%, the fraction remaining at 4 h came out at 105% and the fraction remaining at 360 h was found to be 105%. For the same compound, in data set [1] (plasma, low QC concentration), the fraction remaining at 24 h was found to be 107%, the fraction remaining at 4 h is 108% and the share remaining at 360 h worked out at 108%. In data set [1] (setting [5]), the amount remaining at 24 h turned out to be 104%, the fraction remaining at 4 h came out at 108% and the share remaining at 360 h was 104%. In addition, in data set [2] (in vivo), the area under the curve AUC(0-inf) is 76.7 ng·h/mL, the half-life is 6.37 ± 1.08 h, the Cmax stood at 35.6 ± 10.2 ng/mL and the MRT last was 6.25 h. In addition, in data set [2] (in vivo), the AUC(0-t) was 72.1 ng·h/mL and the Tmax was < 0.767 h. In addition, the “Tmax (time to reach peak concentration)” value in data set [2] is 30 (30, 45) min.
`C[C@@]12C[C@@]3(O)O[C@@H](O1)[C@]1(COC(=O)c4ccccc4)[C@H]3C[C@@]12O[C@@H]1O[C@H](CO)[C@@H](O)[C@H](O)[C@H]1O` [Paeoniflorin, paeoniflorin]: the IC50 in data set [3] is 420 µM. For the same compound, the “Remaining (%)” value in data set [1] (high QC concentration) was found to be 105.0%. Besides, in data set [1] (low QC concentration), the “Remaining (%)” value is on record as 107.8%. Further, in data set [1] (medium QC concentration), the “Remaining (%)” value came to 106.4%. Besides, in data set [1] (plasma, high QC concentration), the amount remaining at 24 h is 103%, the amount remaining at 4 h is 96.4% and the amount remaining at 360 h is 104%. Moreover, in data set [1] (plasma, low QC concentration), the share remaining at 24 h amounted to 98.3%, the share remaining at 4 h came out at 102% and the share remaining at 360 h stood at 98.6%. Further, in data set [1] (setting [5]), the share remaining at 24 h worked out at 105%, the amount remaining at 4 h turned out to be 102% and the amount remaining at 360 h worked out at 104%. Also, in data set [2] (in vivo), the area under the curve AUC(0-inf) was 1230 ng·h/mL, the half-life was 3.5 ± 0.633 h, the Cmax amounted to 905 ± 226 ng/mL and the MRT last is 3.32 h. Also, in data set [2] (in vivo), the exposure AUC(0-t) is 1220 ng·h/mL and the Tmax was < 0.767 h. Also, the “Concentration that inhibits phosphorylation of ERK, JNK, IKK” value in data set [4] was 25 ng/mL.
Take `COc1cc2c(cc1OC)[C@@H]1Cc3ccc(OC)c(OC)c3CN1CC2` [Tetrahydropalmatine, tetrahydropalmatine]: in data set [1] (high QC concentration), the “Remaining (%)” value is 108.1%. Besides, the “Remaining (%)” value in data set [1] (low QC concentration) was found to be 89.9%. The “Remaining (%)” value in data set [1] (medium QC concentration) is recorded as 107.4%. Besides, in data set [1] (plasma, high QC concentration), the share remaining at 24 h came to 101%, the share remaining at 4 h turned out to be 102% and the share remaining at 360 h turned out to be 103%. In data set [1] (plasma, low QC concentration), the amount remaining at 24 h worked out at 105%, the share remaining at 4 h stood at 103% and the amount remaining at 360 h came to 104%. Also, in data set [1] (setting [5]), the amount remaining at 24 h was found to be 98.4%, the amount remaining at 4 h came to 101% and the fraction remaining at 360 h was 103%. Moreover, in data set [2] (in vivo), the AUC(0-inf) was 184 ng·h/mL, the half-life is 5.17 ± 0.9 h, the Cmax is 42 ± 13.4 ng/mL and the MRT last was 8.2 h. In data set [2] (in vivo), the AUC(0-t) is 170 ng·h/mL and the Tmax was 3.15 h. Further, the “Tmax (time to reach peak concentration)” value in data set [2] is on record as 180 (180, 180) min.
Take `COc1ccc(-c2coc3cc(O[C@@H]4O[C@H](CO)[C@@H](O)[C@H](O)[C@H]4O)ccc3c2=O)cc1O` [Calycosin-7-glucoside, calycosin-7-glucoside]: in data set [1] (high QC concentration), the “Remaining (%)” value is 107.4% and the share remaining at 24 h came out at 103%. Also, in data set [1] (low QC concentration), the “Remaining (%)” value is on record as 108.1% and the amount remaining at 24 h was determined as 104%. In addition, in data set [1] (medium QC concentration), the “Remaining (%)” value is recorded as 107.3% and the share remaining at 24 h was found to be 104%. Moreover, in data set [1] (plasma, high QC concentration), the share remaining at 4 h turned out to be 103% and the fraction remaining at 360 h is 102%. Moreover, in data set [1] (plasma, low QC concentration), the fraction remaining at 4 h came out at 106% and the amount remaining at 360 h was found to be 108%. Besides, in data set [1] (setting [5]), the fraction remaining at 4 h was found to be 96% and the share remaining at 360 h worked out at 94.3%. For the same compound, the Tmax in data set [2] (plasma) was < 0.767 h. In data set [2], the AUC(0-inf) was 79.3 ng·h/mL, the half-life turned out to be 4.43 ± 0.733 h, the Cmax was determined as 52.2 ± 14.8 ng/mL and the MRT last is 2.17 h. In data set [2], the area under the curve AUC(0-t) is 77.4 ng·h/mL and the “Tmax (time to reach peak concentration)” value is on record as 45 (45, 60) min.
In data set [2] (in vivo), `COc1ccc(-c2coc3cc(O)ccc3c2=O)cc1` [Formononetin, formononetin] showed an area under the curve AUC(0-t) of 15.2 ng·h/mL. In addition, in data set [2] (plasma), the Tmax is < 0.767 h. In data set [2], the AUC(0-inf) was 18.7 ng·h/mL, the half-life was 15.8 ± 1.62 h, the Cmax was found to be 6.79 ± 2.18 ng/mL and the MRT last is 12.9 h. Also, in data set [2], the “Tmax (time to reach peak concentration)” value is reported as 45 (30, 45) min.
